The source of these data is ChEMBL document CHEMBL6114978, “Rational design and synthesis of pyrazole derivatives as potential SARS-CoV-2 Mpro inhibitors: An integrated approach merging combinatorial chemistry, molecular docking, and deep learning” (Bioorg Med Chem, 2025).

Parameters in all cases: species or system Severe acute respiratory syndrome-related coronavirus
A short description of experiment [1]: Inhibition of SARS-CoV Main protease assessed as inhibition constant.
Experiment [2] is described as follows: Inhibition of His-tagged SARS-CoV 3CLpro using Abz-SVTLQSG-Tyr(NO2)R as substrate by fluorometric assay.
The nature of experiment [3]: Inhibition of SARS-CoV Main protease.

What is called Ki is the dissociation constant of the complex between target and ligand, obtained from inhibition or displacement. Consider `Cc1cc(C(=O)N[C@@H](C)C(=O)N[C@H](C(=O)N[C@@H](CC(C)C)C(=O)N[C@H](/C=C/C(=O)OCc2ccccc2)C[C@@H]2CCNC2=O)C(C)(C)C)no1`, for which the Ki in experiment [1] amounted to 3.3 µM. One may read the IC50 as the point on the concentration scale where inhibition reaches its midpoint. Low readings indicate inhibition by little substance, high ones a need for much substance. Regarding `CC(=O)N[C@H](CN[C@H](C(=O)N[C@@H](CC(C)C)C(=O)N[C@@H](C[C@@H]1CCNC1=O)C(=O)Cn1[nH]c(=O)c2c([N+](=O)[O-])cccc2c1=O)[C@@H](C)OCc1ccccc1)C(C)C`, in experiment [2], the IC50 turned out to be 0.6 µM. In experiment [3], `CC(C)(C)c1ccc(N(C(=O)c2cnc[nH]2)[C@@H](C(=O)NC2CCCCC2)c2cccnc2)cc1` yielded an IC50 of 1.6 µM. This lies in the single-digit micromolar range.
